{"source": "patent US20110189251A1", "about": "“COMPOUNDS AND COMPOSITIONS FOR THE CONTROL OF PESTS” (priority 2007, published 2011)", "key": {"[1]": {"test_system": "Eastern subterranean termite, Reticulitermes flavipes", "assay": "Killing activity in termites, compound pipetted onto back", "assay_type": "in vivo", "conditions": "adults, 1 μL"}, "[2]": {"test_system": "adult German cockroaches, Blattella germanica", "assay": "Insecticidal action, time-to-death of adult German cockroaches after 10 μL on the back", "assay_type": "in vivo", "conditions": "regardless of male or female", "procedure": "Material and Methods: Ten μL of either BioUD 10, pure 2-Undecanone, or Raid were separately applied to the backs (thorax and wings) of adult German cockroaches, Blattella germanica. Insects were separately placed into FLUON®-treated diet cups (Vol.=30 mL, lower diam.=3 cm, height=4 cm) to prevent escape of treated specimens."}}, "data": [{"smiles": "CCCCCCCCCC(C)=O", "note": "[2-Undecanone, 2-undecanone]", "values": [{"measurement": "Time-to-death (sec), mean", "setting": "[1]; castes w and s together", "result": 171.5, "unit": "s"}, {"measurement": "Time-to-death", "setting": "[1]; caste s, single insects", "result": 146, "unit": "s"}, {"measurement": "speed of kill relative to the formulated product (BioUD10)", "setting": "[2]", "result": "~2", "unit": "×"}]}]}
